{
  "source": "ChEMBL document CHEMBL1833908",
  "about": "“Hydrazidomycins, cytotoxic alkylhydrazides from Streptomycesatratus” (Bioorg Med Chem Lett, 2011)",
  "type_in_all_cases": "functional, cell-based",
  "key": {"[1]": {"system": "SAOS-2", "test": "Cytotoxicity against human Saos2 cells by propidium iodide staining"}, "[2]": {"system": "TE-671", "test": "Cytotoxicity against human TE671 cells by propidium iodide staining"}, "[3]": {"test": "Cytotoxicity against human UXF 1138L cells by propidium iodide staining"}, "[4]": {"test": "Cytotoxicity against human CXF 269L cells by propidium iodide staining"}, "[5]": {"system": "T-24", "test": "Cytotoxicity against human T24 cells by propidium iodide staining"}, "[6]": {"test": "Cytotoxicity against human BXF 1218L cells by propidium iodide staining"}, "[7]": {"test": "Cytotoxicity against human BXF 1352L cells by propidium iodide staining"}, "[8]": {"test": "Cytotoxicity against human DIFI cells by propidium iodide staining"}, "[9]": {"system": "HCT-116", "test": "Cytotoxicity against human HCT116 cells by propidium iodide staining"}, "[10]": {"system": "HT-29", "test": "Cytotoxicity against human HT-29 cells by propidium iodide staining"}, "[11]": {"system": "RKO", "test": "Cytotoxicity against human RKO cells by propidium iodide staining"}, "[12]": {"system": "MKN-45", "test": "Cytotoxicity against human MKN45 cells by propidium iodide staining"}, "[13]": {"test": "Cytotoxicity against human GXF251L cells by propidium iodide staining", "conditions": "GXF 251L"}, "[14]": {"system": "CAL-27", "test": "Cytotoxicity against human CAL27 cells by propidium iodide staining"}, "[15]": {"test": "Cytotoxicity against human LIXF 575L cells by propidium iodide staining"}, "[16]": {"test": "Cytotoxicity against human LXFA 289L cells by propidium iodide staining"}, "[17]": {"test": "Cytotoxicity against human LXFA 526L cells by propidium iodide staining"}, "[18]": {"test": "Cytotoxicity against human LXFA 629L cells by propidium iodide staining"}, "[19]": {"test": "Cytotoxicity against human LXFL 1121L cells by propidium iodide staining"}, "[20]": {"test": "Cytotoxicity against human LXFL 529L cells by propidium iodide staining"}, "[21]": {"system": "NCI-H460", "test": "Cytotoxicity against human NCI-H460 cells by propidium iodide staining"}, "[22]": {"test": "Cytotoxicity against human MAXF 401NL cells by propidium iodide staining"}, "[23]": {"system": "MCF7", "test": "Cytotoxicity against human MCF7 cells by propidium iodide staining"}, "[24]": {"system": "MDA-MB-231", "test": "Cytotoxicity against human MDA-MB-231 cells by propidium iodide staining"}, "[25]": {"test": "Cytotoxicity against human MEXF 1341L cells by propidium iodide staining"}, "[26]": {"test": "Cytotoxicity against human MEXF 276L cells by propidium iodide staining", "conditions": "MEXF276L"}, "[27]": {"test": "Cytotoxicity against human MEXF 462NL cells by propidium iodide staining"}, "[28]": {"test": "Cytotoxicity against human OVXF 899L cells by propidium iodide staining"}, "[29]": {"test": "Cytotoxicity against human NIH:OVCAR3 cells by propidium iodide staining", "conditions": "OVCAR-3"}, "[30]": {"test": "Cytotoxicity against human PAXF 1657L cells by propidium iodide staining"}, "[31]": {"test": "Cytotoxicity against human PAXF 546L cells by propidium iodide staining"}, "[32]": {"system": "PANC-1", "test": "Cytotoxicity against human PANC1 cells by propidium iodide staining"}, "[33]": {"system": "CWR22R", "test": "Cytotoxicity against human 22Rv1 cells by propidium iodide staining"}, "[34]": {"system": "DU-145", "test": "Cytotoxicity against human DU145 cells by propidium iodide staining"}, "[35]": {"system": "LNCaP", "test": "Cytotoxicity against human LNCAP cells by propidium iodide staining"}, "[36]": {"test": "Cytotoxicity against human PC3M cells by propidium iodide staining", "conditions": "PC-3M"}, "[37]": {"test": "Cytotoxicity against human PXF 1118L cells by propidium iodide staining"}, "[38]": {"test": "Cytotoxicity against human PXF 1752L cells by propidium iodide staining"}, "[39]": {"test": "Cytotoxicity against human PXF 698L cells by propidium iodide staining"}, "[40]": {"test": "Cytotoxicity against human RXF 1781L cells by propidium iodide staining"}, "[41]": {"test": "Cytotoxicity against human RXF 393NL cells by propidium iodide staining"}, "[42]": {"test": "Cytotoxicity against human RXF 486L cells by propidium iodide staining"}},
  "data": [
    {"smiles": "CCCCCCC/C=C\\CCCCC/C=C\\N(NC(=O)COC)C(=O)CCCCCCCCC", "note": "[HYDRAZIDOMYCIN B]", "values": [
      {"measurement": "IC50", "setting": "[1]", "value": 18000, "unit": "nM"},
      {"measurement": "IC50", "setting": "[2]", "value": 18200, "unit": "nM"},
      {"measurement": "IC50", "setting": "[3]", "value": 18200, "unit": "nM"},
      {"measurement": "IC50", "setting": "[4]", "value": 5940, "unit": "nM"},
      {"measurement": "IC50", "setting": "[5]", "value": 9190, "unit": "nM"},
      {"measurement": "IC50", "setting": "[6]", "value": 19300, "unit": "nM"},
      {"measurement": "IC50", "setting": "[7]", "value": 15100, "unit": "nM"},
      {"measurement": "IC50", "setting": "[8]", "value": 10200, "unit": "nM"},
      {"measurement": "IC50", "setting": "[9]", "value": 19400, "unit": "nM"},
      {"measurement": "IC50", "setting": "[10]", "value": 6540, "unit": "nM"},
      {"measurement": "IC50", "setting": "[11]", "value": 13800, "unit": "nM"},
      {"measurement": "IC50", "setting": "[12]", "value": 11600, "unit": "nM"},
      {"measurement": "IC50", "setting": "[13]", "value": 1540, "unit": "nM"},
      {"measurement": "IC50", "setting": "[14]", "value": 12700, "unit": "nM"},
      {"measurement": "IC50", "setting": "[15]", "value": 7390, "unit": "nM"},
      {"measurement": "IC50", "setting": "[16]", "value": 12600, "unit": "nM"},
      {"measurement": "IC50", "setting": "[17]", "value": 7070, "unit": "nM"},
      {"measurement": "IC50", "setting": "[18]", "value": 1410, "unit": "nM"},
      {"measurement": "IC50", "setting": "[19]", "value": 17400, "unit": "nM"},
      {"measurement": "IC50", "setting": "[20]", "value": 17300, "unit": "nM"},
      {"measurement": "IC50", "setting": "[21]", "value": 17200, "unit": "nM"},
      {"measurement": "IC50", "setting": "[22]", "value": 876, "unit": "nM"},
      {"measurement": "IC50", "setting": "[23]", "value": 11000, "unit": "nM"},
      {"measurement": "IC50", "setting": "[24]", "value": 5530, "unit": "nM"},
      {"measurement": "IC50", "setting": "[25]", "value": 14900, "unit": "nM"},
      {"measurement": "IC50", "setting": "[26]", "value": 18300, "unit": "nM"},
      {"measurement": "IC50", "setting": "[27]", "value": 20400, "unit": "nM"},
      {"measurement": "IC50", "setting": "[28]", "value": 19100, "unit": "nM"},
      {"measurement": "IC50", "setting": "[29]", "value": 18500, "unit": "nM"},
      {"measurement": "IC50", "setting": "[30]", "value": 20400, "unit": "nM"},
      {"measurement": "IC50", "setting": "[31]", "value": 10800, "unit": "nM"},
      {"measurement": "IC50", "setting": "[32]", "value": 10000, "unit": "nM"},
      {"measurement": "IC50", "setting": "[33]", "value": 15600, "unit": "nM"},
      {"measurement": "IC50", "setting": "[34]", "value": 7220, "unit": "nM"},
      {"measurement": "IC50", "setting": "[35]", "value": 14100, "unit": "nM"},
      {"measurement": "IC50", "setting": "[36]", "value": 1730, "unit": "nM"},
      {"measurement": "IC50", "setting": "[37]", "value": 30000, "unit": "nM"},
      {"measurement": "IC50", "setting": "[38]", "value": 12700, "unit": "nM"},
      {"measurement": "IC50", "setting": "[39]", "value": 14300, "unit": "nM"},
      {"measurement": "IC50", "setting": "[40]", "value": 10200, "unit": "nM"},
      {"measurement": "IC50", "setting": "[41]", "value": 11000, "unit": "nM"},
      {"measurement": "IC50", "setting": "[42]", "value": 21200, "unit": "nM"}
    ]},
    {"smiles": "CCCCCCCCCCCC/C=C\\N(NC(=O)COC)C(=O)CCCCCCCCC", "note": "[HYDRAZIDOMYCIN A]", "values": [
      {"measurement": "IC50", "setting": "[1]", "value": 1820, "unit": "nM"},
      {"measurement": "IC50", "setting": "[2]", "value": 898, "unit": "nM"},
      {"measurement": "IC50", "setting": "[3]", "value": 893, "unit": "nM"},
      {"measurement": "IC50", "setting": "[4]", "value": 222, "unit": "nM"},
      {"measurement": "IC50", "setting": "[6]", "value": 2430, "unit": "nM"},
      {"measurement": "IC50", "setting": "[7]", "value": 2300, "unit": "nM"},
      {"measurement": "IC50", "setting": "[8]", "value": 782, "unit": "nM"},
      {"measurement": "IC50", "setting": "[9]", "value": 758, "unit": "nM"},
      {"measurement": "IC50", "setting": "[10]", "value": 464, "unit": "nM"},
      {"measurement": "IC50", "setting": "[11]", "value": 598, "unit": "nM"},
      {"measurement": "IC50", "setting": "[12]", "value": 676, "unit": "nM"},
      {"measurement": "IC50", "setting": "[13]", "value": 144, "unit": "nM"},
      {"measurement": "IC50", "setting": "[14]", "value": 716, "unit": "nM"},
      {"measurement": "IC50", "setting": "[15]", "value": 349, "unit": "nM"},
      {"measurement": "IC50", "setting": "[16]", "value": 1100, "unit": "nM"},
      {"measurement": "IC50", "setting": "[17]", "value": 1650, "unit": "nM"},
      {"measurement": "IC50", "setting": "[18]", "value": 247, "unit": "nM"},
      {"measurement": "IC50", "setting": "[19]", "value": 2310, "unit": "nM"},
      {"measurement": "IC50", "setting": "[20]", "value": 2120, "unit": "nM"},
      {"measurement": "IC50", "setting": "[21]", "value": 2310, "unit": "nM"},
      {"measurement": "IC50", "setting": "[22]", "value": 471, "unit": "nM"},
      {"measurement": "IC50", "setting": "[23]", "value": 782, "unit": "nM"},
      {"measurement": "IC50", "setting": "[24]", "value": 286, "unit": "nM"},
      {"measurement": "IC50", "setting": "[25]", "value": 936, "unit": "nM"},
      {"measurement": "IC50", "setting": "[26]", "value": 1590, "unit": "nM"},
      {"measurement": "IC50", "setting": "[27]", "value": 765, "unit": "nM"},
      {"measurement": "IC50", "setting": "[28]", "value": 1340, "unit": "nM"},
      {"measurement": "IC50", "setting": "[29]", "value": 1100, "unit": "nM"},
      {"measurement": "IC50", "setting": "[30]", "value": 1910, "unit": "nM"},
      {"measurement": "IC50", "setting": "[31]", "value": 660, "unit": "nM"},
      {"measurement": "IC50", "setting": "[32]", "value": 933, "unit": "nM"},
      {"measurement": "IC50", "setting": "[33]", "value": 882, "unit": "nM"},
      {"measurement": "IC50", "setting": "[34]", "value": 539, "unit": "nM"},
      {"measurement": "IC50", "setting": "[35]", "value": 957, "unit": "nM"},
      {"measurement": "IC50", "setting": "[36]", "value": 105, "unit": "nM"},
      {"measurement": "IC50", "setting": "[37]", "value": 2400, "unit": "nM"},
      {"measurement": "IC50", "setting": "[38]", "value": 1190, "unit": "nM"},
      {"measurement": "IC50", "setting": "[39]", "value": 982, "unit": "nM"},
      {"measurement": "IC50", "setting": "[40]", "value": 982, "unit": "nM"},
      {"measurement": "IC50", "setting": "[41]", "value": 1110, "unit": "nM"},
      {"measurement": "IC50", "setting": "[42]", "value": 1620, "unit": "nM"}
    ]}
  ]
}
